Results taken from patent US20140004209A1, “AUTOPHAGY INDUCER AND INHIBITOR COMBINATION THERAPY FOR THE TREATMENT OF NEOPLASMS” (GENENTECH, INC., priority 2010, published 2014).
Entries after “also recorded” stand apart in the source; their conditions may differ. Where a SMILES comes first, the peptide text is derived from it. [ ]: non-standard residue; d: D form. The star is where a group is joined. Sta = CC(C)C[C@H](N)[C@@H](O)CC(=O)O; Isovaleryl = CC(C)CC(=O)*; Nle = CCCC[C@H](N)C(=O)O; Cbz = O=C(OCc1ccccc1)*; CH2F = FC*

Experiments:
PC3 cells [1] = test: Autophagy markers in PC3 cells (EM AVs, GFP-LC3, LC3-II/LC3-I, MDC, AO); type: cell-based, human
Experimental: Western blot analysis, immunofluorescence, 1HC and TUNEL assay: For Western blot analysis, total protein lysates were subjected to SDS-PAGE and transferred to nitrocellulose. […] Detection and quantification were performed using an Odyssey infrared scanner (LICOR) using the manufacturer's software. For immunofluorescence staining, cells were fixed in 3% paraformaldehyde and permeabilized with 0.01% digitonin in PBS, followed by a rabbit polyclonal anti-LC3 (Abgent) primary antibody detected with a cy3-conjugated anti-rabbit secondary antibody (Jackson Immunoresearch). For IHC, formalin-fixed, paraffin-embedded specimens were collected. 5-μm-thick paraffin-embedded sections were stained using an anti-Ki-67 (MIB-1, DakoCytomation) antibody with the Dako ARK kit (Dako Corporation). Tissues were counterstained with haematoxylin, dehydrated, and mounted. In all cases, antigen retrieval was performed with the Dako Target Retrieval Kit as per manufacturer's instructions. For TUNEL assay, formalin-fixed, paraffin-embedded sections were stained using an in situ cell death detection kit (POD; Roche Diagnostic) according to the manufacturer's instructions.
Ultrathin sections were stained with uranyl acetate and lead citrate. Numbers of AV were counted on systematically sampled cytoplasmic areas of 4.5 μm^2 (n≧64 per condition). The percent AV area was measured by means of a square mesh grid laid over ≧5 sets of systematically sampled micrographs with each set covering a cytoplasmic area ≧80 μm^2. The average percent of apoptotic nuclei in tumor tissues was calculated from the number of apoptotic nuclei in 3 to 4 sets of 100 systematically counted tumor cell nuclei.
Multispectral imaging flow cytometry: Cells treated with various agents were stained with Acridine Orange and analyzed by the ImageStream system (Amnis Corporation, Seattle, Wash.) using the IDEAS image analysis program. The DNA AOGreen image and the vacuolar AO Red image were first compensated into separate channels, and then the percentage of apoptotic/anucleate cells (based on AO nuclear morphology and intensity) and vacuolated cells (AO Red+) were quantified. […] AORed Intensity is plotted on the second histogram with an arbitrary gate (R5) drawn to include events with the brightest AO Red intensity.

PC3 cells [2] = test: PC3 cell viability and cell death (PI exclusion, annexin V, caspase-3/7); type: cell-based, human
Experimental: Cell viability and cell cycle analysis. Cell number and viability was measured using trypan blue exclusion assay using a Vi-Cell Analyzer (Beckman Coulter), or labeled with 1 μg/ml PI in PBS/1% BSA followed by cytofluorometric analysis with a fluorescence-activated cell sorter (FACS) (Becton Dickinson). FITC-conjugated Annexin V was used for the assessment of phosphatidylserine exposure by FACS analysis. Caspase activation was analyzed using a Caspase-Glo 3/7 Assay kit (Promega). For cell cycle analysis, cells were fixed with drop-wise addition of chilled 70% ethanol, washed with PBS and resuspended in staining solution containing 50 μg/ml PI and 60 units of RNAse A. DNA content was analyzed by flow cytometry using the FlowJo and ModFit software (Becton Dickinson).

PC3 cells [3] = test: Mitochondrial superoxide (MitoSOX red) and cellular ROS in PC3 cells; type: cell-based, human
Experimental: (B) PC3 cells treated as in A were stained with the Image-iT LIVE green ROS Detection kit and examined by fluorescence microscopy at 24 h. […] (C) Quantification of MitoSOX red and ROS green fluorescence intensities by flow cytometry at 24 h. Cells were treated as in A and B. Error bars represent SEM (n=3).
Because mitochondria are the primary intracellular source of superoxide (O2^−) generation, we analyzed O2^− production using MitoSOX red, an O2^− indicator that accumulates in the mitochondria as a function of membrane potential and fluoresces upon oxidation and subsequent binding to DNA.

PC3 cells [4] = test: Microarray analysis of autophagy gene expression in PC3 cells; type: cell-based, human; conditions: 1 or 5 μM for 6 or 24 hours, normalized to DMSO
Experimental: PC3 cells were induced to express shRNA to indicated Akt isoforms for 72 hours by Doxycycline, RNA was extracted from both Dox treated (Dox+) or untreated control (Dox−) cells. Microarray analysis was carried out using Affymetrix chips. Ratios of the expression levels of each autophagy gene from Dox+ and Dox− samples are shown. Data are mean values from 3 independent experiments.
RNA was extracted from the cells. Microarray analysis was carried out using Affymetrix chips. Expression levels of each autophagy gene are normalized to the DMSO controls. Data are mean values from 3 independent experiments.

[5] = Autophagic vacuole accumulation by side scatter (SSC) in a flow cytometer; type: cell-based
Description: Inhibitors include 3-phenyl-2-(4-((4-(5-(pyridin-2-yl)-1H-1,2,4-triazol-3-yl)piperidin-1-yl)methyl)phenyl)-1,6-naphthyridin-5(6H)-one (II-3), benzyl 2-(4-(3-ethylureido)phenyl)-4-(1,4-oxazepan-4-yl)-5H-pyrrolo[3,4-d]pyrimidine-6(7H)-carboxylate (III-1); 1-ethyl-3-(4-(4-morpholino-7-(pyrimidin-2-yl)-5,6,7,8-tetrahydropyrido[3,4-d]pyrimidin-2-yl)phenyl)urea (III-2), (R)-1-(44(2-(2-aminopyrimidin-5-yl)-7-methyl-4-morpholinothieno[3,2-d]pyrimidin-6-yl)methyl)piperazin-1-yl)-2-hydroxypropan-1-one (III-3), 4-(2-(1H-indazol-4-yl)-6-((4-(methylsulfonyl)piperazin-1-yl)methyl)thieno[3,2-d]pyrimidin-4-yl)morpholine (III-6), (S)—N-(4-(benzo[d][1,3]dioxol-5-yl)thiazol-2-yl)-N-(3-(2-formylpiperidin-1-yl)propyl)thiophene-2-carboxamide (IV-2) and Rapamycin.
FIG. 14 depicts CQ (10 μM) increases the number and size of autophagic vacuoles when combined with the various mTOR, PI3K, and Akt inhibitors.

Akt = test: Immunoblot of Akt and S6 phosphorylation in PC3 cells; type: cell-based, human; conditions: 5 mM NAC
Description: Western blot analysis, immunofluorescence, 1HC and TUNEL assay: For Western blot analysis, total protein lysates were subjected to SDS-PAGE and transferred to nitrocellulose. Antibodies used were: anti-Akt1, anti-Akt2, anti-Akt3, anti-total-Akt, anti-p-Akt (Ser473), anti-p-Akt (Thr308), anti-p-S6 (Ser235/236), anti-PARP and anti-cleaved caspase-3 (Cell Signaling Technology); anti-p-PRAS40 (Invitrogen); anti-p27^Kip1 (Santa Cruz Biotechnology); anti-LC3 (Novus); anti-LAMP2 and anti-Cathepsin D (BD Biosciences); and anti-GAPDH (Advanced Immunochemical Inc.). Primary antibodies were detected using IR Dye 800-conjugated (Rockland) and Alexa-Fluoro 680-conjugated (Molecular Probes) species-selective secondary antibodies. Detection and quantification were performed using an Odyssey infrared scanner (LICOR) using the manufacturer's software. For immunofluorescence staining, cells were fixed in 3% paraformaldehyde and permeabilized with 0.01% digitonin in PBS, followed by a rabbit polyclonal anti-LC3 (Abgent) primary antibody detected with a cy3-conjugated anti-rabbit secondary antibody (Jackson Immunoresearch). For IHC, formalin-fixed, paraffin-embedded specimens were collected. 5-μm-thick paraffin-embedded sections were stained using an anti-Ki-67 (MIB-1, DakoCytomation) antibody with the Dako ARK kit (Dako Corporation). Tissues were counterstained with haematoxylin, dehydrated, and mounted. In all cases, antigen retrieval was performed with the Dako Target Retrieval Kit as per manufacturer's instructions. For TUNEL assay, formalin-fixed, paraffin-embedded sections were stained using an in situ cell death detection kit (POD; Roche Diagnostic) according to the manufacturer's instructions.

| SMILES | rescue of cell death induced by II-4 (Akti) and CQ (PC3 cells [2]) | autophagic vacuole accumulation (SSC), inhibitor alone [5] | other results |
| --- | --- | --- | --- |
| Cn1cnc(N)c2ncnc1-2 [3-MA, 3-methyladenine] |  |  | effect of 3-MA on LC3-II to -I ratios and MDC+ vacuoles in III-5 and CQ treated cells (PC3 cells [1]; 3-MA pretreatment): suppressed this effect; also recorded: reduced both LC3-II to -I ratios and the accumulation of MDC^+ vacuoles; effect of 3-MA pretreatment on cell death promoted by CQ or Ba in shAkt expressing cells (PC3 cells [2]; 1 mM 3-MA): delayed this effect; also recorded: suppressed the cell death-promoting effect of either CQ or Ba; effect of 3-MA on rate of cell death in III-5 and CQ treated cells (PC3 cells [2]; 3-MA pretreatment): slowed down the rate of cell death; effect of 3-MA pretreatment on ROS levels (PC3 cells [3]): reduced ROS signals generated by CQ, Akti and Akti+CQ; also recorded: reduced ROS levels induced by II-4 |
| CO/C1=C\C(C)=C\[C@@H](C)[C@@H](O)[C@@H](C)C/C(C)=C/C=C/[C@H](OC)[C@@H]([C@@H](C)[C@@H](O)[C@H](C)[C@@]2(O)C[C@@H](O)[C@H](C)[C@@H](C(C)C)O2)OC1=O [Ba, bafilomycin A1] |  |  | cell death in combination with shAkt123 (PC3 cells [2]; Dox, 10 μM CQ or […] Ba, 0.5% or 0% FBS): promoted cell death in combination with shAkt 123 |
| CCCNC(=O)[C@H]1O[C@@H]1C(=O)N[C@H](C(=O)N1CCC[C@H]1C(=O)OC)[C@@H](C)CC [CA-074-Me] | Neither of the broad-spectrum cysteine protease inhibitors zFA.fmk and N-Acetyl-Leu-Leu-Nle-CHO nor a more specific cathepsin B inhibitor CA-074-Me showed significant rescue of cell death |  |  |
| Cc1nc(-c2ccc(CN3CCC(n4c(=O)[nH]c5ccccc54)CC3)cc2)c(-c2ccccc2)nc1O [II-1, 1-(1-(4-(5-hydroxy-6-methyl-3-phenylpyrazin-2-yl)benzyl)piperidin-4-yl)-1H-benzo[d]imidazol-2(3H)-one] |  |  | autophagy gene expression (PC3 cells [4]): induce autophagy gene expression |
| O=c1[nH]ccc2nc(-c3ccc(CN4CCC(c5n[nH]c(-c6ccccn6)n5)CC4)cc3)c(-c3ccccc3)cc12 [II-3, 3-phenyl-2-(4-((4-(5-(pyridin-2-yl)-1H-1,2,4-triazol-3-yl)piperidin-1-yl)methyl)phenyl)-1,6-naphthyridin-5(6H)-one] |  | induce increased autophagic vacuole accumulation |  |
| CCNC(=O)Nc1ccc(-c2nc3c(c(N4CCCOCC4)n2)CN(C(=O)OCc2ccccc2)C3)cc1 [III-1, benzyl 2-(4-(3-ethylureido)phenyl)-4-(1,4-oxazepan-4-yl)-5H-pyrrolo[3,4-d]pyrimidine-6(7H)-carboxylate] |  | induce increased autophagic vacuole accumulation |  |
| CCNC(=O)Nc1ccc(-c2nc3c(c(N4CCOCC4)n2)CCN(c2ncccn2)C3)cc1 [III-2, 1-ethyl-3-(4-(4-morpholino-7-(pyrimidin-2-yl)-5,6,7,8-tetrahydropyrido[3,4-d]pyrimidin-2-yl)phenyl)urea] |  | induce increased autophagic vacuole accumulation |  |
| Cc1c(CN2CCN(C(=O)[C@@H](C)O)CC2)sc2c(N3CCOCC3)nc(-c3cnc(N)nc3)nc12 [III-3] |  | induce increased autophagic vacuole accumulation |  |
| NC(=O)[C@@H]1CCCCN1CCCN(C(=O)c1cccs1)c1nc(-c2cc(-c3ccccc3)no2)cs1 [IV-1, (S)-1-(3-(N-(4-(3-phenylisoxazol-5-yl)thiazol-2-yl)thiophene-2-carboxamido)propyl)piperidine-2-carboxamide] |  |  | autophagy gene expression (PC3 cells [4]): induce autophagy gene expression |
| O=C[C@@H]1CCCCN1CCCN(C(=O)c1cccs1)c1nc(-c2ccc3c(c2)OCO3)cs1 [IV-2, (S)—N-(4-(benzo[d][1,3]dioxol-5-yl)thiazol-2-yl)-N-(3-(2-formylpiperidin-1-yl)propyl)thiophene-2-carboxamide] |  | induce increased autophagic vacuole accumulation |  |
| CCCC[C@@H](C=O)NC(=O)[C@H](CC(C)C)NC(=O)[C@H](CC(C)C)NC(C)=O [N-Acetyl-Leu-Leu-Nle-CHO] (Ac-Leu-Leu-[Nle]-aldehyde) | Neither of the broad-spectrum cysteine protease inhibitors zFA.fmk and N-Acetyl-Leu-Leu-Nle-CHO nor a more specific cathepsin B inhibitor CA-074-Me showed significant rescue of cell death |  |  |
| CC(=O)N[C@@H](CS)C(=O)O [NAC, N-acetylcysteine] | NAC rescued cell death induced by Akti+CQ; also recorded: rescued cell viability in the presence of II-4 and CQ |  | effect of NAC on Akti-induced autophagy markers (PC3 cells [1]; 5 mM NAC): counteracted all these effects induced by Akti with or without CQ; also recorded: reduced Akti-induced LC3 and GFP-LC3 lipidation, p62 degradation, and GFP-LC3 puncta formation; effect of NAC on Akti's inhibition of pAkt or pS6 (Akt): did not affect Akti's ability to inhibit pAkt or pS6; effect of NAC on MitoSOX Red signal (PC3 cells [3]; 5 mM NAC): reduced MitoSOX Red signal induced by the various treatments |
| CO[C@H]1C[C@@H]2CC[C@@H](C)[C@@](O)(O2)C(=O)C(=O)N2CCCC[C@H]2C(=O)O[C@H]([C@H](C)C[C@@H]2CC[C@@H](O)[C@H](OC)C2)CC(=O)[C@H](C)/C=C(\C)[C@@H](O)[C@@H](OC)C(=O)[C@H](C)C[C@H](C)/C=C/C=C/C=C/1C [Rapamycin, rapamycin] |  | induce increased autophagic vacuole accumulation |  |
| CC(C)CC(=O)N[C@H](C(=O)N[C@H](C(=O)N[C@@H](CC(C)C)[C@@H](O)CC(=O)N[C@@H](C)C(=O)N[C@@H](CC(C)C)[C@@H](O)CC(=O)O)C(C)C)C(C)C [pepstatin A] (Isovaleryl-VV[Sta]A[Sta]-OH) |  |  | cell death in combination with II-4 (Akti) (PC3 cells [2]): promoted cell death together with Akti-112 |
| CC(NC(=O)[C@H](Cc1ccccc1)NC(=O)OCc1ccccc1)C(=O)CF (stereo partly shown) [zFA.fmk] | Neither of the broad-spectrum cysteine protease inhibitors zFA.fmk and N-Acetyl-Leu-Leu-Nle-CHO nor a more specific cathepsin B inhibitor CA-074-Me showed significant rescue of cell death |  |  |
| COC(=O)C[C@H](NC(=O)[C@H](C)NC(=O)[C@@H](NC(=O)OCc1ccccc1)C(C)C)C(=O)CF [zVAD.fmk] (Cbz-Val-Ala-Asp(OMe)-CH2F) | partially rescued cell death at all concentrations tested |  |  |
